{"source": "paper PMC10766962", "about": "(Nature Communications, 2024)", "key": {"[1]": {"tested_on": "GFP-RSV live virus (RSV A2)"}}, "note": "Positions of bridges follow the written chain, without caps; N, C: chain ends. Non-standard residues stand in square brackets, D forms with d. Residues, ends and D or L forms follow the SMILES beside them. Groups on a side chain read outwards from the residue. *: point of attachment. Acetyl(2-S-cholesteryl) = CC(C)CCC[C@@H](C)[C@H]1CC[C@H]2[C@@H]3CC=C4C[C@@H](SCC(=O)*)CC[C@]4(C)[C@H]3CC[C@]12C; PEG16 = NCCOCCOCCOCCOCCOCCOCCOCCOCCOCCOCCOCCOCCOCCOCCOCCOCCC(=O)O; R8 = C=CCCCCCC[C@@](C)(N)C(=O)O; S5 = C=CCCC[C@](C)(N)C(=O)O"}
{"smiles": "CC[C@H](C)[C@H](NC(=O)[C@H](CO)NC(=O)[C@H](C)NC(=O)[C@H](CC(=O)O)NC(=O)[C@H](Cc1ccccc1)NC(C)=O)C(=O)N[C@@H](CO)C(=O)N[C@@H](CCC(N)=O)C(=O)N[C@H](C(=O)N[C@@H](CC(N)=O)C(=O)N[C@@H](CCC(=O)O)C(=O)N[C@@H](CCCCN)C(=O)N[C@H](C(=O)N[C@@H](CC(N)=O)C(=O)N[C@@H](CCC(N)=O)C(=O)N[C@@H](CO)C(=O)N[C@@H](CC(C)C)C(=O)N[C@]1(C)CCCCCCC=CCCC[C@@](C)(C(=O)N[C@@H](CC(C)C)C(=O)N[C@@H](CC(C)C)C(=O)N[C@@H](Cc2c[nH]cn2)C(=O)N[C@@H](CC(N)=O)C(=O)N[C@H](C(=O)N[C@@H](CCCCNC(=O)CCOCCOCCOCCOCCOCCOCCOCCOCCOCCOCCOCCOCCOCCOCCOCCOCCNC(=O)CS[C@H]2CC[C@@]3(C)C(=CC[C@H]4[C@@H]5CC[C@H]([C@H](C)CCCC(C)C)[C@@]5(C)CC[C@@H]43)C2)C(N)=O)C(C)C)NC(=O)[C@H](CC(=O)O)NC(=O)[C@H](CO)NC(=O)[C@H](CCCCN)NC(=O)[C@H](CCCNC(=N)N)NC(=O)[C@H]([C@@H](C)CC)NC(=O)[C@H](Cc2ccccc2)NC1=O)[C@@H](C)CC)C(C)C", "note": "[SLI-RSV] (Ac-FDASISQVNEKINQSL[R8]FIRKSD[S5]LLHNVK([PEG16-Acetyl(2-S-cholesteryl)])-NH2; staple 17-24)", "values": [{"measurement": "IC50", "setting": "[1]", "value": 58, "unit": "nM"}, {"measurement": "cytotoxicity", "setting": "A549 cells", "value": "no cytotoxicity"}]}
